Laboratory results reported in patent publication US20070092551A1, “Therapeutic agent” (TAKARA BIO INC., priority 2003, published 2007).

Key:
[1] = test system: 3T3-L1 cells; test: Induction of adipocyte differentiation (amount of triglyceride biosynthesis); format: cell-based; conditions: Mus musculus, 3T3-L1, X=(S−N)/(P−N) of amount of triglyceride, P=insulin positive control, read-out: Action for Induction of Differentiation
Protocol: Induction of adipocyte differentiation was carried out by partially modifying the above-mentioned method of Rubin C. S. et al. In addition, as a test compound, a compound prepared in Examples mentioned above or a commercially available compound was used. 3T3-L1 cells (ATCC CCL-92.1) were suspended in a 10% fetal bovine serum (manufactured by Bio Whittaker)-containing Dulbecco's modified Eagle's medium (manufactured by Sigma, D6046) containing 200 μM ascorbic acid so as to have a density of 4×10^3 cells/mL, and the suspension was put in each well of a 12-well microtiter plate in an amount of 2 ml per well. The cells were cultured at 37° C. for 7 days in the presence of 5% carbon dioxide gas. On the seventh day, the medium was exchanged with a 10% fetal bovine serum (manufactured by Bio Whittaker)-containing Dulbecco's modified Eagle's medium containing 200 μM ascorbic acid and 0.25 μM dexamethasone, and a test compound dissolved in dimethyl sulfoxide in a concentration shown in each of Tables 16 to 19 was added to each well. Here, there were set a group with addition of 4 μL of an aqueous solution containing 5 mg/mL insulin (manufactured by TAKARA BIO INC.) as a positive control, and a group with addition of dimethyl sulfoxide as a negative control. After 45 hours, the medium was exchanged with a 10% fetal bovine serum-containing Dulbecco's modified Eagle's medium containing 200 μM ascorbic acid. A test compound, 2 μL of an aqueous solution containing 5 mg/mL insulin as a positive control, or dimethyl sulfoxide as a negative control was put to each well in the same concentration. The cells were cultured for additional 7 days. In addition, the medium was exchanged on after 2 days and after 5 days, and at that time, a test compound, 2 μL of an aqueous solution containing 5 mg/mL insulin as a positive control, or dimethyl sulfoxide as a negative control was put to each well in the same concentration.
The amount of triglyceride in the adipocytes was determined as an index of induction of differentiation into mature adipocytes, and also, as the evaluation of insulin-mimetic action.
After the termination of the culture, the medium was removed, and the cells were washed twice with a phosphate buffered saline. One milliliter of a solvent of hexane:isopropanol=3:2 was added to the cells. The mixture was allowed to stand at room temperature for 30 minutes, and thereafter the supernatant was collected. The procedures were repeated again, and 2 mL of the supernatant was concentrated to dryness. The precipitate was dissolved in 100 μL of isopropanol, and the amount of triglyceride contained in 10 μL of the solution was determined using a triglyceride E-test (manufactured by Wako Pure Chemical Industries, Ltd., code 432-40201). In addition, all the determinations were carried out twice. The action for induction of differentiation was calculated by the following calculation formula, and shown by four ranks of +++, ++, + and +/−. • S: Amount of triglyceride in the presence of a test compound; • N: Amount of triglyceride in the negative control; and • P: Amount of triglyceride in the positive control; X=(S−N)/(P−N) (Judgment of Action for Induction of Differentiation)

[2] = test system: mature adipocytes (3T3-L1 cells); test: Enhancing action on glucose uptake (2-deoxyglucose) into mature adipocytes; format: cell-based; conditions: Mus musculus, 3T3-L1, X=(S−N)/(P−N) of 2-deoxyglucose uptake, P=insulin 1 μg/mL, read-out: Enhancing Action on Glucose Uptake
Protocol: The induction of differentation into nature adipocytes was carried out by partially modifying the above-mentioned method of Rubin C. S. et al. 3T3-L1 cells (ATCC CCL-92.1) were suspended in a 10% fetal bovine serum (manufactured by Bio Whittaker)-containing Dulbecco's modified Eagle's medium (manufactured by Sigma, D6046) containing 200 μM ascorbic acid so as to have a density of 4×10^3 cells/mL, and the suspension was put in each well of a collagen type I-coated 12-well plate (Iwaki Glass Co., Ltd., code 4815-010) in an amount of 2 mL per well. The cells were cultured at 37° C. for 7 days in the presence of 5% carbon dioxide gas. On the seventh day, the medium was exchanged with 2 mL of a 10% fetal bovine serum (manufactured by Bio Whittaker)-containing Dulbecco's modified Eagle's medium containing 200 μM ascorbic acid, 0.25 μM dexamethasone, 10 μg/mL insulin (manufactured by TAKARA BIO INC.) and 0.5 mM 3-isobutyl-1-methylxanthine (manufactured by nacalai tesque, 19624-86). After 45 hours, the medium was exchanged with 2 mL of a 10% fetal bovine serum-containing Dulbecco's modified Eagle's medium containing 200 μM ascorbic acid and 5 μg/mL insulin. The medium was exchanged on after 2 days and 5 days, and the cells were cultured for 7 days, to give mature adipocytes.
As the evaluation of the enhancing action on glucose uptake, and also as the evaluation of the insulin-mimetic action, the amount of 2-deoxyglucose uptake into mature adipocytes during the stimulation of the test compound in the adipocytes was determined. As a test compound, a compound prepared in the Examples mentioned above or a commercially available compound was used.
After the termination of the culture, the medium was removed, and the cells were washed twice with a 0.1% (w/v) bovine serum albumin (manufactured by Sigma, A8022)-containing Dulbecco's modified Eagle's medium. Thereafter, 1 mL of the same medium containing a test compound in a concentration shown in each of Tables 20 to 23 was put to each well. The cells were cultured overnight at 37° C. in the presence of 5% carbon dioxide gas. Here, a group without containing the test compound was set as a negative control. After the overnight culture, the cells were washed twice with a HEPES buffer (140 mM NaCl, 5 mM KCl, 2.5 mM MgSO4, 1 mM CaCl2, 20 mM HEPES-Na (pH 7.4)). The amount 0.9 mL of the buffer containing a test compound in the same concentration was added to each well. The cells were cultured at 37° C. for 75 minutes. During the culture, as a positive control, there was set a group with addition of insulin to the well without addition of a test compound at a point 45 minutes passed so as to have a final concentration of 1 μg/mL. Thereafter, 100 μL of a HEPES buffer containing 0.5 μCi/mL 2-deoxy-[1,2-^3H(N)]-glucose (manufactured by PerkinElmer Life Sciences Inc., NET549A) and 1 mM 2-deoxyglucose (manufactured by nacalai tesque, 10722-11) was added thereto. The cells were cultured at 37° C. for additional 10 minutes. After the termination of the culture, the supernatant was removed, and the cells were washed three times with a phosphate buffer cooled to 4° C. Thereafter, 0.5 mL of a 1% Nonidet P-40-containing phosphate buffer was added to lyse the cells, whereby 2-deoxy-[1,2-^3H(N)]-glucose subjected to uptake into the cells was eluted. The radioactivity was determined with a liquid scintillation counter LS6500 (manufactured by Beckmann) using 25 μL of the supernatant with Ultima Gold (manufactured by PerkinElmer Life Sciences Inc., 6013329) as a scintillation cocktail. The enhancing action on glucose uptake was calculated by the following calculation formula, and shown by four ranks of +++, ++, + and +/−. • S: Amount of 2-deoxyglucose uptake in the presence of a test compound; • N: Amount of 2-deoxyglucose uptake in the negative control; and • P: Amount of 2-deoxyglucose uptake in the positive control; X=(S−N)/(P−N) (Judgment of Enhancing Action for 2-Deoxyglucose Uptake)

Compound | activation at 3 µM [1] [%] | activation at 10 µM [1] [%] | activation at 10 µM [2] [%] | activation at 30 µM [2] [%] | activation at 1 µM [1] [%] | activation at 3 µM [2] [%] | activation at 30 µM [1] [%] | activation at 4 µM ([1]; 4 μM) [%] | activation at 13 µM ([1]; 13 μM) [%]
CCOc1ccc(C(=O)/C=C/c2ccc(O)cc2)c(O)c1CC=C(C)C [Compound (C049), 4,2′-dihydroxy-3′-prenyl-4′-ethoxychalcone] | 15 to 30 | 15 to 30 | 30 to 60 | > 100 |  |  |  |  | 
COc1ccc(C(=O)/C=C/c2ccco2)c(O)c1CC=C(C)C [Compound (FUR-1), 3-(2-furyl)-1-(2-hydroxy-3-prenyl-4-methoxyphenyl)-2-propen-1-one] | 30 to 60 | > 100 | 15 to 30 | 60 to 100 | 15 to 30 |  |  |  | 
COc1ccc(C(=O)/C=C/c2ccc(Cl)cc2)c(OC(C)=O)c1C/C=C(\C)CCC=C(C)C [Compound (C080), 4-chloro-2′-acetoxy-3′-geranyl-4′-methoxychalcone] | > 100 | > 100 | 30 to 60 | 60 to 100 | 60 to 100 |  |  |  | 
COc1ccc(C(=O)/C=C/c2ccc(O)cc2)c(O)c1Cc1ccccc1 [Compound (C056), 4,2′-dihydroxy-3′-benzyl-4′-methoxychalcone] | 30 to 60 | > 100 | > 100 | > 100 | 15 to 30 | 15 to 30 |  |  | 
COc1ccc(C(C)=O)c(O)c1CCC(C)C [Compound (C041), 2′-hydroxy-3′-(3-methylbutyl)-4′-methoxyacetophenone] | 30 to 60 | > 100 |  | > 100 |  |  |  |  | 
CC(C)=CCCC(C)(O)C1Cc2c(ccc(C(=O)/C=C/c3ccc(O)cc3)c2O)O1 (stereo not shown) [TB3, 1-[2,3-dihydro-4-hydroxy-2-(1-hydroxy-1,5-dimethyl-4-hexenyl)-benzofuran-5-yl]-3-(4-hydroxyphenyl)-2-propen-1-one] | > 100 | > 100 | > 100 |  |  | 30 to 60 |  |  | 
COc1ccc(C(=O)/C=C/c2ccc(OC(C)=O)cc2)c(OC(C)=O)c1C/C=C(\C)CCC=C(C)C [Compound (C064-1), 4,2′-diacetoxy-3′-geranyl-4′-methoxychalcone] | > 100 | > 100 | 60 to 100 | > 100 |  |  |  |  | 
CC(=O)c1ccc(OCC=C(C)C)cc1C [Compound (C059), 2′-methyl-4′-prenyloxyacetophenone] | 15 to 30 | 30 to 60 | 15 to 30 | 30 to 60 |  |  | > 100 |  | 
COc1ccc(C(=O)/C=C/c2ccc(O)cc2)c(OC(C)=O)c1C/C=C(\C)CCC=C(C)C [Compound (C064-2), 2′-acetoxy-3′-geranyl-4-hydroxy-4′-methoxychalcone] | > 100 | > 100 | 30 to 60 | > 100 |  | 15 to 30 |  |  | 
COc1ccc(/C=C/C(=O)c2c(OC)cc(OC)c(CC=C(C)C)c2O)cc1 [Compound (C046), 4,4′,6′-trimethoxy-2′-hydroxy-3′-prenylchalcone] | 60 to 100 | > 100 | > 100 | > 100 |  | 15 to 30 |  |  | 
COc1ccc(C(C)=O)c(O)c1C/C=C(\C)CCC=C(C)C [Compound (C038), 2′-hydroxy-3′-geranyl-4′-methoxyacetophenone] | 30 to 60 | > 100 | 30 to 60 | 60 to 100 |  |  |  |  | 
COc1cc(O)c(C(C)=O)cc1CC=C(C)C [Compound (C027), 2′-hydroxy-4′-methoxy-5′-prenylacetophenone] |  |  | 15 to 30 | 30 to 60 |  |  |  | 15 to 30 | 30 to 60
COc1ccc(C(=O)/C=C/c2ccc(OC(C)=O)cc2)c(O)c1CC=C(C)C [Compound (C078), 4-acetoxy-2′-hydroxy-3′-prenyl-4′-methoxychalcone] |  | 30 to 60 | 15 to 30 | > 100 |  |  | > 100 |  | 
COc1ccc(C(=O)/C=C/c2ccc(O)cc2)c(OCc2ccccc2)c1CC=C(C)C [Compound (C077), 4-hydroxy-2′-benzyloxy-3′-prenyl-4′-methoxychalcone] | 30 to 60 |  | 30 to 60 | 30 to 60 |  |  |  |  | 
